Consider 1 compound from patent US5459256A, “Lipophilic, aminohydrolase-activated prodrugs” (priority 1991, dated 1995).

“Also recorded” adds a separate entry of the source.

One data set can be described thus: physchem. The conditions noted are these: octanol/ph 7.0 buffer, pH 7, Log P. Here is the method:
Measurement of Octanol-Water Partition Coefficients.
n-Octanol-water partition coefficients (P) were determined by a microscale shake-flask procedure, (Ford, H. et al Abstracts of Papers, 200th National Meeting of the American Chemical Society, Washington, D.C.; American Chemical Society: Washington, D.C., 1990; CARB 13) which was modification of an earlier method (Nahum, A. & Horvath, C. J. Chromatogr. 1980, 192, 315). A 20 μL aliquot of a 0.5 mg/mL DMSO solution of the dideoxynucleoside was dissolved in 1.0 mL of octanol-saturated, pH 7.0, 0.01M potassium phosphate buffer. This was mixed thoroughly with 1.0 ml of buffer-saturated n-octanol in a 2-mL Mixxor apparatus at 24°-26° C. and then allowed to stand for 15 min. The phases were separated, centrifuged at 600×g for 5 min, and the relative concentration of sample in each phase determined by HPLC analysis of a 50 μl aliquot. The partition coefficient was calculated by dividing the absolute area of the appropriate integrated peak from the octanol phase by that of the buffer phase (Table I).
Octanol/pH 7.0 buffer partition coefficients were determined using a newly developed microscale method. […] The addition of a methyl group normally increases the log P value of a compound by about 0.5.

The subject of data set [1] is HIV-1/IIIB (CD4^+ ATH8 cells). Nature of the data set: HIV cytopathic effect inhibition assay in ATH8 cells (% protection). The data set is classed as cell-based. The conditions noted are these: for inhibition at 10 µM: Human immunodeficiency virus 1, IIIB, ATH-8, 192 h. Here is the method:
HIV Cytopathic Effect Inhibition Assay.
The HIV cytopathic effect inhibition assay was performed as previously described. (Mitsuya, H. & Broder, S. Proc. Nat. Acad. Sci. USA 1986, 83, 1911) Briefly, 200,000 target CD4^+ ATH8 cells were exposed to cell-free HIV-1/IIIB at a dose of 43 (or 1087 for compound 1g) TCID50 (50% tissue culture infectious dose) for 1 h, resuspended in 2 ml of fresh culture media containing interleukin 2, and cultured at 37° C. with or without test compounds in 5% CO2 -containing humidified air. On day 8 in culture, the viable cells were counted by using the dye exclusion method. All compounds, including inactives, were evaluated a minimum of two times in separate experiments. Data reported in Table II are from representative tests. The % protection against the virus was determined by the following formula: 100 times [(the number of viable cells exposed to HIV-1 and cultured in the presence of the compound minus the number of viable cells exposed to HIV-1 and cultured in the absence of compound) divided by (the number of viable cells cultured alone minus the number of viable cells exposed to HIV-1 and cultured in the absence of the compound)]. The % toxicity of a compound on the target cells was determined by the following formula: 100 times [1 minus (the number of total viable cells cultured in the presence of the compound divided by the number of total viable cells cultured alone)]. Calculated percentages equal to or less than zero are expressed as 0%.
^a ATH8 cells were exposed to HIV1/IIIB per cell for 1 hr and
cultured in the presence of various concentrations of each compound. On
day 8, the total viable cells were counted. Orders of numbers in the
column for concentrations correspond to the orders of numbers in other
(Damage to the host cells serves as the signal in cytopathic effect assays.)

With `CNc1ncnc2c1ncn2[C@@H]1O[C@H](CO)C[C@@H]1F` [Compound 1f, N^6 -Methyl-9-(2'3'-dideoxy-2'-fluoro-β-D-arabinofuranosyl)adenine], in the data set “physchem”, the logD (usually the decadic logarithm of the distribution of all forms, ionised or not, between an organic phase and buffer at a given pH) stood at 0.27 ± 0.01. Besides, in data set [1] (10 μM, with dCF (2 μM), 11520 min), the “% Protection” value was below 10%. Further, the “anti-HIV activity in the presence of dCF (in words)” value in data set [1] (ATH8 cells, dCF added) was “protection was either abolished or greatly decreased; also recorded: can have activity abolished”. Besides, in data set [1] (ATH8 cells, no additive), the “anti-HIV activity (in words)” value is “that activity was reduced relative to 1a; also recorded: reproducible, albeit unspectacular, activity; also recorded: only moderate anti-HIV activity”. The inhibition (usually the percentage by which the read-out fell short of the control) at 10 µM was determined as 13% in data set [1] (10 μM, no additive (Table IV experiment)) and 90% in data set [1] (10 μM, with added ADA (0.7 U/ml)).
